Patent publication US8808715B1, “Methods and compositions for modulating keratinocyte function” (Georgia Regents Research Institute, Inc, priority 2004, dated 2014)

Experiments:
[1] = tested on: rapidly dividing keratinocytes; experiment: Assay of DNA synthesis ([3H]thymidine incorporation) in rapidly dividing keratinocytes; format: cell-based; details: 24 hours
Experimental: Keratinocytes were prepared from ICR CD-I outbred mice in accordance with a protocol approved by the Institutional Animal Care and Use Committee. Briefly, the skins were harvested and incubated overnight in 0.25% trypsin at 4° C. The epidermis and dermis were separated and basal keratinocytes scraped from the underside of the epidermis. The cells were collected by centrifugation and incubated overnight in an atmosphere of 95% air/5% carbon dioxide at 37° C. in plating medium as described in Dodd M E, Ristich V L, Ray S, Lober R M, Bollag W B (2005) Regulation of protein kinase D during differentiation and proliferation of primary mouse keratinocytes. J Invest Dermatol 125:294-306, incorporated herein by reference. The plating medium was replaced with serum-free keratinocyte medium (SFKM) also as in Dodd, et al., and the cells were refed every 1-2 days with fresh medium until use.
[^3H]Thymidine incorporation into DNA was determined as a measure of DNA synthesis as previously described by Griner, et al., above. Near-confluent keratinocyte cultures were incubated for 24 hours in SFKM containing the indicated additions. PG was added in the form of liposomes prepared by bath sonication of dried PG in SFKM to make a stock solution of 2 mg/mL. [^3H]Thymidine at a final concentration of 1 μCi/mL was then added to the cells for an additional 1-hour incubation. Reactions were terminated by washing with PBS- and macromolecules precipitated with ice-cold 5% trichloroacetic acid. Cells were solubilized in 0.3 M NaOH and the radioactivity incorporated into DNA quantified by liquid scintillation spectroscopy.
[^3H]Thymidine incorporation was used as a measure of DNA synthesis and was performed as described in Example 2. Liposomes containing PG and functional derivatives thereof were prepared by bath sonication as described in Example 2, with the exception that different concentrations of material were employed.

ICR CD1 mice = experiment: Wound healing of full-thickness skin punch biopsies; format: in vivo, mouse; details: topical; 2M glycerol in water, or 100 μg/mL phosphatidylglycerol liposomes in PBS-
Source text: This example presents recent data on the effects of glycerol and phosphatidylglycerol treatment on wound healing obtained in ICR CD1 mice. Two full-thickness skin punch biopsies of˜4 mm were made on the backs of a total of sixteen mice. […] The rate of wound healing was then followed over four days by digital photography and computer image analysis.

AQP3 null mutant mouse = details: studies of the AQP3 null mutant mouse; cited from earlier work
keratin 5 promoter = experiment: Co-transfection analysis, keratin 5 promoter-luciferase reporter; format: cell-based, mouse; details: glycerol 0.2%, 24 hours
Experimental: FIGS. 15A-B illustrate that glycerol, but not xylitol or sorbitol, inhibits DNA synthesis and enhances the inhibitory effect of an elevated extracellular Ca^2+ concentration. (A) Near-confluent keratinocytes were incubated for 24 hours with 0.02 or 0.1% glycerol and DNA synthesis measured as the incorporation of [^3H] thymidine incorporation into DNA. (B) Near-confluent keratinocytes were incubated for 24 hours with the indicated concentrations of glycerol (G, squares) or equivalent concentrations of xylitol (X, circles) in SFKM containing 25 μM (control; open symbols) or 125 μM Ca^2+ (Ca^2+; closed symbols). (C) Near-confluent keratinocytes were incubated for 24 hours with the indicated concentrations of glycerol (G) or equivalent concentrations of sorbitol (S, triangles) in SFKM containing 25 μM (control; open symbols) or 125 μM Ca^2+ (Ca^2+; closed symbols) for 24 hours. [^3H]Thymidine incorporation into DNA was then determined. Values represent the means±SEM of 4 to 5 separate experiments performed in duplicate; *p<0.05, **p<0.01 versus the control value, †p<0.05 versus the value in the presence of Ca^2+ alone. […] After 24 hours cells were refed with medium containing no addition (control) or 0.2% glycerol for an additional 24 hours. Luciferase activity was then measured using a Dual Luciferase kit as directed by the manufacturer. […] The blots were quantified using the Kodak molecular imaging software. […]
The keratin 5 and keratin 10 promoter-luciferase constructs were provided by of Dr. Bogi Andersen (University of California, Irvine, Calif.); the involucrin promoter-luciferase construct was provided by Dr. Daniel Bikle (University of California, San Francisco, Calif.). […] Luciferase activity was then measured using the Dual Luciferase Reporter Assay kit (Promega, Madison, Wis.) as directed by the manufacturer.

PLD-2 = molecular target: T1, PLD-2 (Homo sapiens, UniProt O14939); experiment: In vitro assay of phosphatidylglycerol formation by PLD-2 (transphosphatidylation); format: biochemical
T1 construct: purchased Onyx Pharmaceuticals; host or cells: Sf9 insect cells (membrane preparation)
T1 sequence (O14939 whole entry, species assumed): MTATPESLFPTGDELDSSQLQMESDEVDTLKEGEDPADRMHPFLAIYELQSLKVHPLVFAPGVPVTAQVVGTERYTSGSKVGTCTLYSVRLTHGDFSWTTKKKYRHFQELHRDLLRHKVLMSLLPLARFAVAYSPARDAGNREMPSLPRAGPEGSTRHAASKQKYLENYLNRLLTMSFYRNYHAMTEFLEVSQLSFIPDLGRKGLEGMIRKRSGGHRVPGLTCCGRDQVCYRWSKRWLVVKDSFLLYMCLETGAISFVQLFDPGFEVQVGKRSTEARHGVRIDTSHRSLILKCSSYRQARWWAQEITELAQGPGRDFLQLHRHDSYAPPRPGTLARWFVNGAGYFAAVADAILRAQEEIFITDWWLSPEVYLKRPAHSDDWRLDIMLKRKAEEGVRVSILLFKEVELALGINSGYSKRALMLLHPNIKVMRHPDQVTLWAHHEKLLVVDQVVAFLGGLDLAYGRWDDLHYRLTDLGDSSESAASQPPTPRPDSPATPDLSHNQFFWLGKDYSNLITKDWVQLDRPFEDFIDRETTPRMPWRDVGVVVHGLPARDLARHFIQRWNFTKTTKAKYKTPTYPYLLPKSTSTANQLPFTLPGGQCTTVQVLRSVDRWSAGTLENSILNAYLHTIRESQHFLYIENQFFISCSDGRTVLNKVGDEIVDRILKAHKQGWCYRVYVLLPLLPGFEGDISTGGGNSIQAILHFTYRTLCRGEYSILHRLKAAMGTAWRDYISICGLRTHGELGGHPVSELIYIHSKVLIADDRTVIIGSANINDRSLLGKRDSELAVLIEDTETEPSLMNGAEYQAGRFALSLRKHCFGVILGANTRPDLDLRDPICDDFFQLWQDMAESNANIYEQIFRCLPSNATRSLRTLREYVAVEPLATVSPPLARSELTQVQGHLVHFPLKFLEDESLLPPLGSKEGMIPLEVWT
Experimental: FIGS. 5 A and B illustrate that glycerol serves as a substrate for phospholipase D in the transphosphatidylation reaction in vitro. Liposomes were prepared from [^3H-dipalmitoyl]phosphatidylcholine, phosphatidylethanolamine, phosphatidylcholine and phosphatidylinositol 4,5-bisphosphate by sonication. Glycerol at the indicated concentrations in the absence (A) or presence of 1% ethanol (B) was added to the reaction mix. Reactions were initiated by the addition of Sf9 PLD2-overexpressing membranes (1 μg protein), incubated for 30 minutes at 37° C. and terminated by the addition of 0.2% SDS (±5 mM EDTA). Lipids were extracted, separated, and quantified. The figure is representative of at least two additional experiments. There was some variability in the absolute levels of phosphatidic acid (PA), PG and phosphatidylethanol (PEt) formed, likely due to variations in the extent of formation of multilamellar vesicles during sonication.
PLD-2 activity was measured in vitro with [^3H-palmitoyl]phosphatidylcholine as substrate. […] Lipids were extracted according to the method of Bligh and Dyer and radiolabeled phospholipids separated and quantified, as described in W. B. Bollag, “Measurement of phospholipase D activity, Methods” Mol. Biol. 105 (1998) 151-160, incorporated herein by reference.

primary keratinocytes = experiment: [3H]Glycerol uptake; format: cell-based, mouse; details: 30 minutes pretreatment with 100 nM PMA, then [3H]glycerol 5 minutes
Experimental: Confluent primary keratinocytes were incubated for 30, 60, 90, 120, 300 or 600 seconds with SFKM containing 20 mM HEPES (for additional pH buffering), 1 μCi/mL [^3H]glycerol and 0.1% DMSO (control) or 100 nM PMA. Reactions were terminated by washing three times with ice-cold phosphate-buffered saline lacking divalent cations. The cells were subsequently solubilized in 0.3 M NaOH and aliquots of this extract subjected to liquid scintillation counting. Counts obtained from duplicate samples at each time point were averaged and graphed, and a linear equation was determined for each condition. Correlation coefficients obtained were typically 0.99 or greater (mean correlation coefficient for control was 0.992±0.002 and for PMA, 0.994±0.001). Slopes obtained from multiple experiments were averaged and analyzed statistically for significant differences between conditions.
The linearity of glycerol uptake determined above allowed measurement of uptake at a single time point to determine the effects of other treatments on this process. Thus, confluent keratinocytes were preincubated for 30 minutes with 0.1% DMSO (control) or 100 nM PMA prior to measuring [^3H]glycerol uptake as above but at 5 minutes only. Similarly, near-confluent primary keratinocytes were incubated for 24 hours with SFKM containing various calcium concentrations prior to measurement of radiolabeled glycerol uptake for 5 minutes.
Near-confluent keratinocyte cultures were incubated for 24 hours in SFKM (25 μM calcium) or SFKM containing 125 μM calcium (125 μM Ca^2+-SFKM) and the glycerol uptake assay performed as previously described in Zheng & Bollag (2003). Briefly, cells were incubated with SFKM containing 20 mM HEPES (for additional pH buffering) and 1 μCi/mL [^3H] glycerol for 5 minutes, since it has previously been shown that this time point is in the linear range of [^3H]glycerol uptake (Zheng & Bollag (2003). Reactions were terminated by rapidly washing three times with ice-cold phosphate-buffered saline lacking divalent cations (PBS-). Cells were then solubilized in 0.3 M NaOH and [^3H]glycerol uptake quantified by liquid scintillation spectroscopy.

[2] = tested on: primary epidermal keratinocytes; experiment: Radiolabeled phosphatidylglycerol formation in intact keratinocytes; format: cell-based, mouse; details: 100 nM PMA, 30 minutes with [3H]glycerol; p<0.01
Experimental: Primary epidermal keratinocytes were prepared from 1-3-day old neonatal ICR mice after trypsin flotation of the skin and mechanical separation of the epidermis from the dermis. The epidermal cells were released by scraping, collected by centrifugation and plated in 6-well dishes in a medium consisting of MEM containing 25 μM calcium, 2% dialyzed fetal bovine serum, 2 mM glutamine, 5 ng/mL EGF, ITS (6.25 μg/mL insulin+6.25 μg/mL transferrin+6.25 ng/mL selenious acid+5.35 μg/mL linoleic acid+1.25% bovine serum albumin), 100 U/mL penicillin, 100 μg/mL streptomycin and 0.25 μg/mL fungizone. After an overnight incubation, the cells were refed with serum-free keratinocyte medium (SFKM), in which 2% dialyzed fetal bovine serum was replaced with 90 μg/mL bovine pituitary extract. Cells were refed with fresh medium every 1-3 days.
For the PLD assay cultured primary keratinocytes were labeled for 20-24 hours with 2.5 μCi/ml [^3H] oleic acid. The cells were then exposed to vehicle or 100 nM PMA in the presence of 0.5% ethanol for 30 minutes. To measure the formation of radiolabeled phosphatidylglycerol, cells were treated for 24 hours with SFKM containing vehicle, 250 nM 1,25-dihydroxyvitamin D3 or 125 μM calcium and then labeled for an additional 30 minutes with 1-2.5 μCi/mL [^3H] or 0.4-0.5 μCi/mL [^14C]glycerol. For experiments investigating the extracellular calcium dependence of PG formation, cells were incubated for 24 hours in SFKM containing various calcium concentrations prior to the addition of 5 μCi/mL [^3H]glycerol for 30 minutes. In some cases, cells were stimulated with 25 μM calcium (control)—or 125 μM calcium-containing SFKM for 24 hours prior to the addition of [^14C]glycerol in the presence and absence of 1% ethanol. To measure phosphatidylglycerol formation in response to PMA, unlabeled cells were stimulated with 100 nM PMA in the presence of radiolabeled glycerol, as above. Reactions were terminated and the radiolabeled phosphatidylalcohol extracted, separated by thin-layer chromatography and quantified as described by Bollag (1998), referenced above.

PLD = PLD activity (radiolabeled phosphatidylethanol formation in [3H]oleate-prelabeled keratinocytes); format: cell-based, mouse; details: 100 nM PMA, 30 minutes, 0.5% ethanol; p<0.02
Experimental: Near-confluent keratinocytes were incubated without radiolabel (for phosphatidylglycerol production) or pre-labeled with 2.5 μCi/mL [^3H]oleate (for phosphatidylethanol formation) for 20-24 hours. The cells were then stimulated for 30 minutes with vehicle (0.05-0.1% DMSO; Con) or 100 nM PMA in the presence of [^3H]glycerol (for phosphatidylglycerol production), or in the presence of 0.5% ethanol (for phosphatidylethanol formation). Reactions were terminated by the addition of 0.2% SDS (±5 mM EDTA) and radiolabeled phosphatidylglycerol (PG), or phosphatidylethanol (PEt) was extracted, separated by thin-layer chromatography and quantified. Values are expressed as -fold over control and represent the means±SEM of three separate experiments performed in duplicate or triplicate; *p<0.02 versus the appropriate control by an unpaired Student's t-test.
For the PLD assay cultured primary keratinocytes were labeled for 20-24 hours with 2.5 μCi/ml [^3H] oleic acid. The cells were then exposed to vehicle or 100 nM PMA in the presence of 0.5% ethanol for 30 minutes. […] Reactions were terminated and the radiolabeled phosphatidylalcohol extracted, separated by thin-layer chromatography and quantified as described by Bollag (1998), referenced above.

Structure (SMILES)	effect on DNA synthesis in presence of 125 μM Ca2+ ([1]; 125 μM Ca2+ medium)	effect on DNA synthesis ([3H]thymidine incorporation into DNA) ([1]; control (25 μM Ca2+) medium)	lowest concentration that significantly inhibited DNA synthesis ([1]; 0.02% = 2.73 mM) [%]	rate of wound healing (percentage on day 4 relative to day 1) (ICR CD1 mice)	correction of the epidermal phenotype of the knockout model (AQP3 null mutant mouse)	reduction in keratin 5 promoter activity (keratin 5 promoter; empty vector) [%]	reduction in keratin 5 promoter activity (keratin 5 promoter; keratinocytes transfected with AQP3) [%]	formation of PG from phosphatidylcholine (glycerol as substrate for transphosphatidylation) (PLD-2; PLD2-overexpressing Sf9 membranes, 30 minutes at 37° C.)	competition with ethanol in the transphosphatidylation reaction (PLD-2; in presence of 1% ethanol)	glycerol uptake (primary keratinocytes)	PG production [2]	PLD activity (radiolabeled phosphatidylethanol formation) (PLD)
OCC(O)CO [glycerol]	enhanced the inhibitory effect of 125 μM Ca^2+	inhibited DNA synthesis	0.02	improved the rate of wound healing	could correct the epidermal phenotype	~9	~47	PLD2 catalyzed the formation of PG from phosphatidylcholine in the presence of glycerol	could compete with the primary alcohol ethanol to generate PG in place of phosphatidylethanol			
CCCCCCCCCCCCCC(=O)O[C@@H]1[C@@H](C)[C@@]2(O)[C@@H](C=C(CO)C[C@]3(O)C(=O)C(C)=C[C@@H]23)[C@@H]2C(C)(C)[C@]12OC(C)=O [PMA, Phorbol 12-myristate 13-acetate]										decrease in glycerol uptake	decrease in PG production	large increase in PLD activity
